Values after ≈ are worked out from the molar mass of the structure shown.

This is an account of results in US5776944A, “7-(4-aminomethyl-3-methyloxyiminopyrroplidin-1-yl)-1-cyclopropyl-6-flu oro-4-oxo-1,4-dihydro-1,8-naphthyridine-3-carboxylic acid and the process for the preparation thereof” (LG Chemical Ltd., priority 1994, dated 1998).

Common to all, as to format: cell-based
In experiment [1] the test system is Staphylococcus aureus 6538p. Kind of experiment: In vitro antibacterial activity (MIC, agar dilution), Biological Example 1. The settings on record: 18 h, Table 25, read-out: Minimum Inhibitory Concentration.
Experiment [2] concerns Staphylococcus aureus giorgio. The experiment is described as above. The settings on record: 18 h, Table 25, read-out: Minimum Inhibitory Concentration.
In the next experiment the test system is Staphylococcus aureus 77. The description is as above. As to conditions: 18 h; Staphylococcus aureus 77, Table 25; read-out: Minimum Inhibitory Concentration.
Experiment [3] concerns Staphylococcus aureus 241. The description is as above. As to conditions: 18 h; Staphylococcus aureus 241, Table 25; read-out: Minimum Inhibitory Concentration.
Experiment [4] deals with Staphylococcus epidermidis 887E. The experiment is described as above. As to conditions: 18 h, Table 25, read-out: Minimum Inhibitory Concentration.
Experiment [5] relates to Staphylococcus epidermidis 178. The description is as above. The settings on record: 18 h; Staphylococcus epidermidis 178, Table 25; read-out: Minimum Inhibitory Concentration.
Experiment [6] relates to Streptococcus faecalis 29212. The description is as above. As to conditions: Enterococcus faecalis, 18 h; Streptococcus faecalis 29212, Table 25; read-out: Minimum Inhibitory Concentration.
Another experiment concerns Bacillus subtilis 6633. The description is as above. The settings on record: 18 h; Bacillus subtilis 6633, Table 25; read-out: Minimum Inhibitory Concentration.
The next experiment concerns Micrococcus luteus 9341. Described as above. As to conditions: 18 h; Micrococcus luteus 9341, Table 25; read-out: Minimum Inhibitory Concentration.
A further experiment relates to Escherichia coli 10536. The description is as above. As to conditions: 18 h; Escherichia coli 10536, Table 25; read-out: Minimum Inhibitory Concentration.
The next experiment deals with Escherichia coli 3190Y. Described as above. As to conditions: 18 h, Table 25, read-out: Minimum Inhibitory Concentration.
A further experiment deals with Escherichia coli 851E. Described as above. As to conditions: 18 h, Table 25, read-out: Minimum Inhibitory Concentration.
The test system of experiment [7] is Escherichia coli TEM3 3455E. Put plainly: microbe, parasite or virus in culture. The settings on record: TEM33455E, 18 h, read-out: Minimum Inhibitory Concentration.
Experiment [8] concerns Escherichia coli TEM5 3739E. Put plainly: microbe, parasite or virus in culture. The settings on record: TEM53739E, 18 h, read-out: Minimum Inhibitory Concentration.
For experiment [9], the system named is Escherichia coli TEM9 2639E. Kind of experiment: microbe, parasite or virus in culture. The settings on record: TEM92639E, 18 h, read-out: Minimum Inhibitory Concentration.
The subject of experiment [10] is Pseudomonas aeruginosa 1912E. Put plainly: In vitro antibacterial activity (MIC, agar dilution), Biological Example 1. The settings on record: 18 h; Pseudomonas aeruginosa 1912E, Table 25; read-out: Minimum Inhibitory Concentration. Background: In agar dilution the substance is mixed into plates at graded concentrations.
Experiment [11] concerns Pseudomonas aeruginosa 10145. The description is as above. The settings on record: 18 h; Pseudomonas aeruginosa 10145, Table 25; read-out: Minimum Inhibitory Concentration.
Experiment [12] concerns Acinetobacter calcoaceticus 15473. Described as above. As to conditions: 18 h; Acinetobacter calcoaceticus 15473, Table 25; read-out: Minimum Inhibitory Concentration.
The test system of experiment [13] is Citrobacter diversus 2046E. The description is as above. The settings on record: Citrobacter koseri, 18 h, Table 25, read-out: Minimum Inhibitory Concentration.
Experiment [14] has as its system Enterobacter cloacae 1194E. Kind of experiment: microbe, parasite or virus in culture. As to conditions: 18 h, read-out: Minimum Inhibitory Concentration.
The next experiment deals with Enterobacter cloacae P99. Put plainly: microbe, parasite or virus in culture. As to conditions: P99, 18 h, read-out: Minimum Inhibitory Concentration.
For experiment [15], the system named is Klebsiella aerogenes 1976E. Put plainly: In vitro antibacterial activity (MIC, agar dilution), Biological Example 1. As to conditions: 18 h, Table 25, read-out: Minimum Inhibitory Concentration.
Experiment [16] relates to Klebsiella aerogenes 1082E. The description is as above. As to conditions: 18 h, Table 25, read-out: Minimum Inhibitory Concentration.
Experiment [17] relates to Salmonella typimurium 14028. The description is as above. The settings on record: 18 h; Salmonella typimurium 14028, Table 25; read-out: Minimum Inhibitory Concentration.

For the molecule `NCC1CN(c2cc3c(cc2F)c(=O)c(C(=O)O)cn3C2CC2)CC1=NOCc1ccccc1` (stereo not drawn) [Example 12, 7-(4-animomethyl-3-benzyloxyimino-pyrrolidin-1-yl)-1-cyclcopropyl-6-fluoro-1,4-dihydro-4-oxoquinoline-3-carboxylic acid], the MIC in experiment [1] is at most 8 ng/mL; in experiment [2] it was at most 8 ng/mL; with Staphylococcus aureus 77, at most 0.008 µg/mL; in experiment [3] it was 1 µg/mL (≈ 2.15 µM); in [4], at most 8 ng/mL; in experiment [5], 0.5 µg/mL (≈ 1.08 µM). Further, the MIC was 0.031 µg/mL (≈ 0.0667 µM) in experiment [6]; at most 8 ng/mL in the experiment on Bacillus subtilis 6633; 0.13 µg/mL (≈ 0.28 µM) in the experiment on Micrococcus luteus 9341; at most 8 ng/mL in the experiment with Escherichia coli 10536; 0.016 µg/mL (≈ 0.0344 µM) in the experiment with Escherichia coli 3190Y; 0.063 µg/mL (≈ 0.136 µM) in the experiment on Escherichia coli 851E. The MIC in experiment [7] is 0.5 µg/mL (≈ 1.08 µM); in [8] it was 0.25 µg/mL (≈ 0.538 µM); in experiment [9], 0.25 µg/mL (≈ 0.538 µM); in experiment [10], 2 µg/mL (≈ 4.31 µM); in experiment [11] it was 0.5 µg/mL (≈ 1.08 µM); in experiment [12], 0.016 µg/mL (≈ 0.0344 µM). In addition, the MIC is 0.13 µg/mL (≈ 0.28 µM) in [13]; 0.13 µg/mL (≈ 0.28 µM) in experiment [14]; 0.063 µg/mL (≈ 0.136 µM) with Enterobacter cloacae P99; 1 µg/mL (≈ 2.15 µM) in experiment [15]; 0.13 µg/mL (≈ 0.28 µM) in experiment [16]; 0.25 µg/mL (≈ 0.538 µM) in [17].
Turning to `NCC1CN(c2c(F)c(N)c3c(=O)c(C(=O)O)cn(C4CC4)c3c2F)CC1=NOCc1ccccc1` (stereo not drawn) [Example 56, 5-amino-7-(4-aminomethyl-3-benzyloxylmino-pyrrolidin-1-yl)-1-cyclopropyl6,8-difluoro-1,4-dihydro-4-oxoquinoline-3-carboxylic acid], the MIC in [1] was at most 8 ng/mL; in experiment [2], at most 8 ng/mL; in the experiment on Staphylococcus aureus 77 it was at most 0.008 µg/mL; in experiment [3], 2 µg/mL (≈ 4.02 µM); in [4], at most 8 ng/mL; in [5] it was 2 µg/mL (≈ 4.02 µM). Also, the MIC is 0.016 µg/mL (≈ 0.0322 µM) in experiment [6]; at most 8 ng/mL in the experiment on Bacillus subtilis 6633; 0.063 µg/mL (≈ 0.127 µM) in the experiment on Micrococcus luteus 9341; at most 8 ng/mL with Escherichia coli 10536; at most 0.008 µg/mL with Escherichia coli 3190Y; at most 0.008 µg/mL with Escherichia coli 851E. For the same molecule, the MIC in experiment [7] is 0.5 µg/mL (≈ 1.01 µM); in experiment [8], 0.25 µg/mL (≈ 0.503 µM); in experiment [9], 0.063 µg/mL (≈ 0.127 µM); in experiment [10], 2 µg/mL (≈ 4.02 µM); in [11] it was 2 µg/mL (≈ 4.02 µM); in experiment [12], at most 0.008 µg/mL. Moreover, the MIC in experiment [13] is 0.016 µg/mL (≈ 0.0322 µM); in experiment [14], 0.031 µg/mL (≈ 0.0623 µM); in the experiment with Enterobacter cloacae P99, at most 0.008 µg/mL; in experiment [15], 0.5 µg/mL (≈ 1.01 µM); in [16], 0.016 µg/mL (≈ 0.0322 µM); in experiment [17] it was 0.031 µg/mL (≈ 0.0623 µM).
In the case of `CC(C)ON=C1CN(c2nc3c(cc2F)c(=O)c(C(=O)O)cn3C2CC2)CC1CN` (stereo not drawn) [Example 97], the MIC in experiment [1] was at most 8 ng/mL; in experiment [2], at most 8 ng/mL; with Staphylococcus aureus 77, 0.016 µg/mL (≈ 0.0383 µM); in [3] it was 2 µg/mL (≈ 4.79 µM); in [4] it was at most 8 ng/mL; in experiment [5], 1 µg/mL (≈ 2.4 µM). In addition, the MIC in experiment [6] was 0.063 µg/mL (≈ 0.151 µM); with Bacillus subtilis 6633 it was at most 8 ng/mL; in the experiment on Micrococcus luteus 9341, 0.063 µg/mL (≈ 0.151 µM); in the experiment on Escherichia coli 10536, at most 8 ng/mL; in the experiment with Escherichia coli 3190Y, at most 0.008 µg/mL; in the experiment with Escherichia coli 851E, 0.031 µg/mL (≈ 0.0743 µM). The MIC is 0.13 µg/mL (≈ 0.311 µM) in [7]; 0.063 µg/mL (≈ 0.151 µM) in experiment [8]; 0.031 µg/mL (≈ 0.0743 µM) in experiment [9]; 1 µg/mL (≈ 2.4 µM) in experiment [10]; 1 µg/mL (≈ 2.4 µM) in experiment [11]; 0.016 µg/mL (≈ 0.0383 µM) in experiment [12]. Moreover, the MIC in [13] is 0.063 µg/mL (≈ 0.151 µM); in experiment [14], 0.063 µg/mL (≈ 0.151 µM); in the experiment with Enterobacter cloacae P99 it was at most 0.008 µg/mL; in experiment [15], 0.25 µg/mL (≈ 0.599 µM); in experiment [16], 0.13 µg/mL (≈ 0.311 µM); in experiment [17], 0.13 µg/mL (≈ 0.311 µM).
